The values that follow are results of earlier work, collected in patent publication US20220251295A1 (DYNAMIC BIOLOGICS INC., priority 2019, published 2022).

For data set [1] the following is noted: Phase III clinical trials.
The conditions of data set [2]: administered with levodopa.
For data set [3] the following is noted: levodopa alone.

As to `CCOC(=O)[C@@H](N)Cc1ccc(O)c(O)c1` [Etilevodopa], the “efficacy compared with Levodopa” value in data set [1] was “less efficacious than Levodopa”.

Take `C[C@@](Cc1ccc(O)c(O)c1)(NN)C(=O)O` [carbidopa]: the “reduction of the amount of levodopa required to produce a given response” value in data set [2] is listed as 75%.

Take `N[C@@H](Cc1ccc(O)c(O)c1)C(=O)O` [levodopa, (S)-2-amino-3-(3,4-dihydroxyphenyl)propanoic acid]: the “Plasma half-life of levodopa” value in data set [3] was about 50 min.
